The values that follow come from patent US20140357655A1, “SPIROINDOLINE DERIVATIVES AS GONADOTROPIN- RELEASING HORMONE RECEPTOR ANTAGONISTS” (Bayer Intellectual Property GmbH, priority 2012, published 2014).

In one data set the target is T1, human GnRHR (Homo sapiens, UniProt P30968).
T1 construct: host or cells: HEK293 (transient transfection), purchased as frozen labelled cells
T1 sequence (P30968 1-328): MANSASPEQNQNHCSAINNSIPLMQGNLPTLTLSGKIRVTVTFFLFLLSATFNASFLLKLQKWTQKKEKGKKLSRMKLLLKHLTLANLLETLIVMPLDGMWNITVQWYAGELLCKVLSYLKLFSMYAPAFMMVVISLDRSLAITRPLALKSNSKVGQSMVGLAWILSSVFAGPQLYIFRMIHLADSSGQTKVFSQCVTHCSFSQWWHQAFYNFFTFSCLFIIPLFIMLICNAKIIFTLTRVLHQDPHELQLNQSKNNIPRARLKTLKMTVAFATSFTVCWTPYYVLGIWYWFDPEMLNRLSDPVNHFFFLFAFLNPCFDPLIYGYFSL
Nature of the data set: Tag-Lite receptor binding assay. The settings on record: Hek293 cells transiently transfected with human GnRHR; green-labelled GnRHR binding peptide; read-out: Potency in receptor binding assay using TAG-LITE technology, given as IC50. From the text:
This binding assay is based on the fluorescence resonance energy transfer between fluorescence donor labelled human GnRHR and a green-labelled GnRHR binding peptide. Compounds interfering with the ligand binding side of the human GnRHR will replace the labelled peptide resulting in a signal decrease. The assay principle was established by Cisbio Bioassays (Bagnols-sur-Cèze Cedex, France) and further details are available on their homepage.
The assay procedure was further optimized for use in-house with reduced assay volumes. Frozen Hek293 cells, transiently transfected with human GnRHR and Terbium-labelling of the receptor, were supplied by Cisbio Bioassays as well as Tag-Lite buffer and green-labelled GnRHR binding peptide. Cells were thawed and transferred to cold Tag-Lite buffer. A volume of 8 μl of this cell suspension were added to 100 nl of a 160-fold concentrated solution of the test compound in DMSO pre-dispensed in a well of a white low-volume 384-well microtiter plate (Greiner Bio-One, Frickenhausen, Germany). The mixture was incubated for 5 min at room temperature. In the next step either 4 μl Tag-Lite buffer or as control 4 μl of an exceeding amount unlabelled binding peptide in Tag-Lite buffer were transferred to the mixture. The green-labelled GnRHR binding peptide was added in a final step at EC50 in a volume of 4 μl Tag-Lite buffer. After an incubation of 1 h at room temperature plates were measured in a microplate reader, e.g. a PHERAstar (BMG Labtechnologies, Offenburg, Germany) by using a specific optic module.
A ratio from the fluorescence emissions at 520 nm (green fluorescence) and at 490 nm (background signal of Terbium-labelled GnRHR) was calculated and the data were normalized (reaction without test compound=0% inhibition of binding of green-labelled peptide; reaction without test compound with exceeding amount unlabelled binding peptide=100% inhibition of binding of green-labelled peptide). On the same microtiter plate, compounds were tested at 10 different concentrations in the range of 12.5 μM to 0.64 nM (12.5 μM, 4.2 μM, 1.4 μM, 0.46 μM, 0.15 μM, 51 nM, 17 nM, 5.7 nM, 1.9 nM and 0.64 nM; dilution series prepared before the assay at the level of the 160-fold conc. stock solutions by serial 1:3 dilutions in 100% DMSO) in duplicate values for each concentration. By using an in-house software, the IC50 values were calculated by a 4 parameter fit.

A short description of data set [1]: Serum compound levels in ovariectomized rats. The class given is in vivo. The settings on record: female, rat, read-out: serum compound level. Here is the method:
(§1) Female adult rats were ovariectomized surgically and they were allowed to recover for at least one week. The animals received 1 mg/kg, 10 mg/kg or 30 mg/kg of Example 14.1 by single per oral administration. For comparison reasons a vehicle control and a positive control, 0.1 mg/kg cetrorelix i.p., were given once. At 0 min, 15 min, 30 min, 1 hour, 2 hours, 6 hours and 24 hours after compound administration blood was taken from the retro orbital plexus (n=6 per blood withdrawal) for the measurement of serum LH and serum compound levels.

Another data set relates to serum LH. The data set is described as follows: LH suppression in the ovariectomized rat. Format: in vivo. The settings on record: ovariectomized rats; for LH suppression: at 6 hours.
Description: The in vivo potency of GnRH antagonists can be quantified by a LH suppression test in ovariectomized rats. GnRH triggers the LH release from the pituitary mediated by GnRH receptors. Ovarectomy of adult female rats results in elevated levels of circulating LH due to a lack of negative feedback by gonadal steroids. GnRH antagonists suppress the release of LH and accordingly suppression of LH levels can be used to quantify the in vivo potency of GnRH antagonists.
as §1

Another data set has as its target T2, human GnRH receptor (Homo sapiens, UniProt P30968).
T2 sequence (P30968 1-328): T1 sequence (P30968 1-328)
The data set is described as follows: IP-One HTRF assay with buserelin (at EC80) stimulation. Format: cell-based. The settings on record: CHO cells stably expressing human GnRH receptor, read-out: Potency in IP-One HTRF assay, given as IC50. In a few lines: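 Ten-point duplicate titrations (20 μM to 1 nM) were fitted by 4-parameter model to normalized 665/620 nm HTRF ratios, 0% = no compound, 100% = no agonist. Assay measured IP1 accumulation in human GnRH-R CHO cells stimulated 1 h at 37° C with EC80 buserelin, then lysed 1 h at 22° C.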
(In general: In TR-FRET formats the signal depends on donor and acceptor labels being close together.)

The IC50 is the concentration that inhibits the measured activity by half.

SMILES strings stand for the structures. Like-named read-outs stand apart in the source and are kept apart here. Square brackets hold non-standard residues; d marks the D form. Peptide text beside a SMILES is read from it. dPhe(4-Cl) = N[C@H](Cc1ccc(Cl)cc1)C(=O)O; d2Nal = N[C@H](Cc1ccc2ccccc2c1)C(=O)O; dCit = NC(=O)NCCC[C@@H](N)C(=O)O; d3Pal = N[C@H](Cc1cccnc1)C(=O)O

In the case of `O=C(NCc1ncccc1Cl)c1ccc2c(c1)C1(CCS(=O)(=O)CC1)C(C1CC1)N2S(=O)(=O)c1ccc(F)cc1` (single isomer, unassigned) [Example 14.1, N-[(3-Chloropyridin-2-yl)methyl]-2-cyclopropyl-1-[(4-fluorophenyl)sulfonyl]-1,2,2′,3′,5′,6′-hexahydrospiro[indole-3,4′-thiopyran]-5-carboxamide 1′,1′-dioxide], the IC50 on human GnRHR worked out at 20 nM; at human GnRH receptor, 104 nM. Further, the concentration at 6 h turned out to be 40 nM in data set [1] (1 mg/kg per oral), 770 ± 200 nM in data set [1] (10 mg/kg per oral) and 1840 ± 530 nM in data set [1] (30 mg/kg per oral). In addition, the LH suppression with serum LH (1 mg/kg single per oral) is listed as 11%; in the data set on serum LH (10 mg/kg single per oral) it was 89%; in the data set on serum LH (30 mg/kg single per oral) it was 88%. Further, the “in vivo activity (conclusion in words)” value in the data set with serum LH (per oral) is “orally active GnRH antagonist in vivo”.

For the compound `N#Cc1ccc(S(=O)(=O)N2c3ccc(C(=O)Nc4ccccc4F)cc3C3(CCS(=O)(=O)CC3)C2C2CC2)cc1` (stereo not drawn) [Example 75, 1-[(4-cyanophenyl)sulfonyl]-2-cyclopropyl-N-(2-fluorophenyl)-1,2,2′,3′,5′,6′-hexahydrospiro[indole-3,4′-thiopyran]-5-carboxamide 1′,1′-dioxide], the IC50 at human GnRHR turned out to be 30 nM; on human GnRH receptor, 53 nM.

Compound `CC(=O)N[C@H](Cc1ccc2ccccc2c1)C(=O)N[C@H](Cc1ccc(Cl)cc1)C(=O)N[C@H](Cc1cccnc1)C(=O)N[C@@H](CO)C(=O)N[C@@H](Cc1ccc(O)cc1)C(=O)N[C@H](CCCNC(N)=O)C(=O)N[C@@H](CC(C)C)C(=O)N[C@@H](CCCNC(=N)N)C(=O)N1CCC[C@H]1C(=O)N[C@H](C)C(N)=O` [cetrorelix, reference compound] (Ac-[d2Nal][dPhe(4-Cl)][d3Pal]SY[dCit]LRP[dA]-NH2) displayed an LH suppression in the data set on serum LH (0.1 mg/kg i.p.) of 91%.
